Literature values in US20100256082A1, “Metallo-hydrolase inhibitors using metal binding moietes in combination with targeting moieties” (Viamet Pharmaceuticals, Inc., priority 2006, published 2010).

Experiments:
RDP = conditions: read-out: 50% inhibitory concentration; reversible, competitive inhibitor of RDP
PDE3A = PDE3A (Homo sapiens, UniProt Q14432, T844A); conditions: T844 to Ala mutant versus PDE3A
Sequence of PDE3A (Q14432 whole entry T844A): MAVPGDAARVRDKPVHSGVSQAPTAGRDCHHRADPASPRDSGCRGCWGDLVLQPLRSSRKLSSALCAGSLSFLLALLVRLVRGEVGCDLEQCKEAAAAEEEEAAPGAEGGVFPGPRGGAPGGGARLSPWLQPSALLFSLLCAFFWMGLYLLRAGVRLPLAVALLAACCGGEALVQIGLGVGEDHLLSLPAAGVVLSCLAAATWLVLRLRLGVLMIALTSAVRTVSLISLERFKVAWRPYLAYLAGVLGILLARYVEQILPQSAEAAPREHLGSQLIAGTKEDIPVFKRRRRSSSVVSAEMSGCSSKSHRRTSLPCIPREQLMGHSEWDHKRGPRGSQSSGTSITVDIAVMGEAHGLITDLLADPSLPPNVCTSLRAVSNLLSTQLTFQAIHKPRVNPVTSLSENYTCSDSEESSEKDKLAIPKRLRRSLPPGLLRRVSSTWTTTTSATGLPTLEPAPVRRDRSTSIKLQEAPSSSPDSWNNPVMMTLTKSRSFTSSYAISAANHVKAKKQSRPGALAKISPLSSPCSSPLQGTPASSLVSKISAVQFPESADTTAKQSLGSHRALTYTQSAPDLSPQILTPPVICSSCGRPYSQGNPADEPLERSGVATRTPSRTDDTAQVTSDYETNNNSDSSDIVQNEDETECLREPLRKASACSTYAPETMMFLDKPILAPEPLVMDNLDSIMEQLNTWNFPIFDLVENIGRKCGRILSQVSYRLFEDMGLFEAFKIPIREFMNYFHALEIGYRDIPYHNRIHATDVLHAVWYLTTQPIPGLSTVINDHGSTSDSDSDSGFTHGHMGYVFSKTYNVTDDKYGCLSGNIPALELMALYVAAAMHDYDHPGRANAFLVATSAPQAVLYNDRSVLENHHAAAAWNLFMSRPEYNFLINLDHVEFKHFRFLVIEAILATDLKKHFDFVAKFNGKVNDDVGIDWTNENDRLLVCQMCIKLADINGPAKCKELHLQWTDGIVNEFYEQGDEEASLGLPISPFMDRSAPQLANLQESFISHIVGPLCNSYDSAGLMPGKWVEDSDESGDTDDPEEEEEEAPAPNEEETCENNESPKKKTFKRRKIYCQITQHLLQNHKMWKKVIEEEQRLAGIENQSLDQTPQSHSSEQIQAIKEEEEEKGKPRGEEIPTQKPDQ

Row | Structure (SMILES) | effect of mutation of T844 to Ala in PDE3A on the K (PDE3A) | other results
1 | CC1(C)C[C@@H]1C(=O)N/C(=C\CCCCSC[C@H](N)C(=O)O)C(=O)O [Cilastatin] | – | IC50 (RDP): 50.1 mM
2 | Nc1nc2c(ncn2[C@@H]2O[C@@H]3COP(=O)(O)O[C@H]3[C@H]2O)c(=O)[nH]1 [cGMP] | no effect | –
3 | O=C1CCc2cc(OCCCCc3nnnn3C3CCCCC3)ccc2N1 [cilostazol] | – | increase in Ki on mutation of T844 to Ala in PDE3A (PDE3A): 25 fold
4 | Cc1[nH]c(=O)c(C#N)cc1-c1ccncc1 [milrinone] | no effect | –
